For three compounds, Activity results are on record in ChEMBL document CHEMBL5715954, “Silencing c-Myc translation as a therapeutic strategy through targeting PI3Kδ and CK1ε in hematological malignancies” (Blood, 2017).

What all share (set-up): scale not given: the % may be the effect or the level left
In assay [1] the target is Activin receptor type-1-like (Homo sapiens) (UniProt P37023). Briefly: Inhibition of human ALK1 assessed as enzyme activity at 1 uM using casein as substrate preincubated for 20 mins followed by [gamma-33P]-ATP addition and measured after 120 mins by radiometric Hot-SpotSM Kinase assay relative to control.
The target in assay [2] is Cyclin-dependent kinase 14/Cyclin-Y (Homo sapiens) (UniProt O94921+Q8ND76). Description: Inhibition of human CDK14/cyclin Y assessed as enzyme activity at 1 uM using RB Protein as substrate preincubated for 20 mins followed by [gamma-33P]-ATP addition and measured after 120 mins by radiometric Hot-SpotSM Kinase assay relative to control. The format is protein-complex assay.

Assay [3] deals with Mitogen-activated protein kinase 7 (Homo sapiens) (UniProt Q13164). Briefly: Inhibition of human ERK5 assessed as enzyme activity at 1 uM using myelin basic protein as substrate preincubated for 20 mins followed by [gamma-33P]-ATP addition and measured after 120 mins by radiometric Hot-SpotSM Kinase assay relative to control.
Assay [4] concerns the target Tyrosine-protein kinase JAK1 (Homo sapiens) (UniProt P23458). Description: Inhibition of human JAK1 assessed as enzyme activity at 1 uM using poly[Glu:Tyr] (4:1) as substrate preincubated for 20 mins followed by [gamma-33P]-ATP addition and measured after 120 mins by radiometric Hot-SpotSM Kinase assay relative to control.
Assay [5] deals with Mitogen-activated protein kinase kinase kinase 21 (Homo sapiens) (UniProt Q5TCX8). Briefly: Inhibition of human MLK4 assessed as enzyme activity at 1 uM using MEK1 (K97R) as substrate preincubated for 20 mins followed by [gamma-33P]-ATP addition and measured after 120 mins by radiometric Hot-SpotSM Kinase assay relative to control.
Assay [6] concerns the target T1, Serine/threonine-protein kinase Nek5 (Homo sapiens) (UniProt Q6P3R8).
T1 sequence (whole entry): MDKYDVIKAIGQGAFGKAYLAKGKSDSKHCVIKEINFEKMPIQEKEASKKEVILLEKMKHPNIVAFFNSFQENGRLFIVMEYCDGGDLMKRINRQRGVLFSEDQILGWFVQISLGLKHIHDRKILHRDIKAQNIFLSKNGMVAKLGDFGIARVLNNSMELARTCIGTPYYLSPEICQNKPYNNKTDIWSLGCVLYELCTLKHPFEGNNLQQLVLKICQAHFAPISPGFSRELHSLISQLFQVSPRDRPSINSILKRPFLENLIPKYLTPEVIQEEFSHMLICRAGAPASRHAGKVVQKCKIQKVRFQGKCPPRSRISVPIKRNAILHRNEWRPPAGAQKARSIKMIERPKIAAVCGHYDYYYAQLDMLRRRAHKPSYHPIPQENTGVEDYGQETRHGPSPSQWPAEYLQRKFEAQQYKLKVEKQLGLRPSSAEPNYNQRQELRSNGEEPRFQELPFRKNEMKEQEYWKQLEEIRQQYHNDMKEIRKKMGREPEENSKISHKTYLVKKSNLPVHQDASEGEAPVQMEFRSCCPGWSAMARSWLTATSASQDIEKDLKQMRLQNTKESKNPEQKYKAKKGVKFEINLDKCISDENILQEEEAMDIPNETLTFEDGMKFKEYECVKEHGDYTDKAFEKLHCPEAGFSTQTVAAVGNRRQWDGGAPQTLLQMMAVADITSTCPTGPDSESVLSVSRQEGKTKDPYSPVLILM
Briefly: Inhibition of human NEK5 assessed as enzyme activity at 1 uM using myelin basic protein as substrate preincubated for 20 mins followed by [gamma-33P]-ATP addition and measured after 120 mins by radiometric Hot-SpotSM Kinase assay relative to control.

The target in assay [7] is T2, Serine/threonine-protein kinase Nek8 (Homo sapiens) (UniProt Q86SG6).
T2 sequence (whole entry): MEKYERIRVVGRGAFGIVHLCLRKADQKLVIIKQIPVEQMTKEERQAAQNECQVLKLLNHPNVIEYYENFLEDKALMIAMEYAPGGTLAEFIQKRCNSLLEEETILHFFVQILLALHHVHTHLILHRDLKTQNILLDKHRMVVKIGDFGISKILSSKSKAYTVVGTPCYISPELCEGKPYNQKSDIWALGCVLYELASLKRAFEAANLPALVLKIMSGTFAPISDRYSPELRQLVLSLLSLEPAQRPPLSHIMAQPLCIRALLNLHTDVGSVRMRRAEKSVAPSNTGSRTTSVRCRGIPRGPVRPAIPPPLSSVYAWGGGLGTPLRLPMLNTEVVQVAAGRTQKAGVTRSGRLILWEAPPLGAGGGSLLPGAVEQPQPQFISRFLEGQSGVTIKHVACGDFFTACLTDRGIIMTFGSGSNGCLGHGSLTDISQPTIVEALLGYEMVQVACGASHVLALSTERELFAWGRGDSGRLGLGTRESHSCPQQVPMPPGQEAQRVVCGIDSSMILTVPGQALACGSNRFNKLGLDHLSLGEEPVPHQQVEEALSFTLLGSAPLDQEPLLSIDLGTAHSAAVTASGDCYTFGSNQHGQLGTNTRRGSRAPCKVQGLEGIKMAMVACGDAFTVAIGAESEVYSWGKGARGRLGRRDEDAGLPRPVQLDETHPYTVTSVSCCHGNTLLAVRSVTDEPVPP
Description: Inhibition of human NEK8 assessed as enzyme activity at 1 uM using myelin basic protein as substrate preincubated for 20 mins followed by [gamma-33P]-ATP addition and measured after 120 mins by radiometric Hot-SpotSM Kinase assay relative to control.

For assay [8], the target named is Serine/threonine-protein kinase PAK 4 (Homo sapiens) (UniProt O96013). Description: Inhibition of human PAK4 assessed as enzyme activity at 1 uM using RRRLSFAEPG as substrate preincubated for 20 mins followed by [gamma-33P]-ATP addition and measured after 120 mins by radiometric Hot-SpotSM Kinase assay relative to control.
For assay [9], the target named is T3, Serine/threonine-protein kinase Sgk3 (Homo sapiens) (UniProt Q96BR1).
T3 sequence (whole entry): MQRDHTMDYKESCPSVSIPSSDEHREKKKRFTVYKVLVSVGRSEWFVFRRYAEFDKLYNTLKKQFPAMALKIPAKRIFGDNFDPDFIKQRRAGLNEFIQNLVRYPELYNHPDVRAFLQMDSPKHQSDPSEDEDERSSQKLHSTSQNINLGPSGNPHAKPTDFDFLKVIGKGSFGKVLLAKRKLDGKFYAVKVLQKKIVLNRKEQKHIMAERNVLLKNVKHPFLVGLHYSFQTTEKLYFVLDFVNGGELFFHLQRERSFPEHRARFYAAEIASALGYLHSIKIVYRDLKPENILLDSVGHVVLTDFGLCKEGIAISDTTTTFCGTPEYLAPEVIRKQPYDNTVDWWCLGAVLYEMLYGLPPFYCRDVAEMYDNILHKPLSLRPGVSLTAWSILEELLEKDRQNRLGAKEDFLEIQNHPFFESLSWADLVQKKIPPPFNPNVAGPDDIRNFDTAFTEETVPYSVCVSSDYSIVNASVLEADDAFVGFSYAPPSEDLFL
Description: Inhibition of human SGK3 assessed as enzyme activity at 1 uM using GRPRTSSFAEG as substrate preincubated for 20 mins followed by [gamma-33P]-ATP addition and measured after 120 mins by radiometric Hot-SpotSM Kinase assay relative to control.

Sequence of Tyrosine-protein kinase JAK1 (Homo sapiens) (P23458 whole entry): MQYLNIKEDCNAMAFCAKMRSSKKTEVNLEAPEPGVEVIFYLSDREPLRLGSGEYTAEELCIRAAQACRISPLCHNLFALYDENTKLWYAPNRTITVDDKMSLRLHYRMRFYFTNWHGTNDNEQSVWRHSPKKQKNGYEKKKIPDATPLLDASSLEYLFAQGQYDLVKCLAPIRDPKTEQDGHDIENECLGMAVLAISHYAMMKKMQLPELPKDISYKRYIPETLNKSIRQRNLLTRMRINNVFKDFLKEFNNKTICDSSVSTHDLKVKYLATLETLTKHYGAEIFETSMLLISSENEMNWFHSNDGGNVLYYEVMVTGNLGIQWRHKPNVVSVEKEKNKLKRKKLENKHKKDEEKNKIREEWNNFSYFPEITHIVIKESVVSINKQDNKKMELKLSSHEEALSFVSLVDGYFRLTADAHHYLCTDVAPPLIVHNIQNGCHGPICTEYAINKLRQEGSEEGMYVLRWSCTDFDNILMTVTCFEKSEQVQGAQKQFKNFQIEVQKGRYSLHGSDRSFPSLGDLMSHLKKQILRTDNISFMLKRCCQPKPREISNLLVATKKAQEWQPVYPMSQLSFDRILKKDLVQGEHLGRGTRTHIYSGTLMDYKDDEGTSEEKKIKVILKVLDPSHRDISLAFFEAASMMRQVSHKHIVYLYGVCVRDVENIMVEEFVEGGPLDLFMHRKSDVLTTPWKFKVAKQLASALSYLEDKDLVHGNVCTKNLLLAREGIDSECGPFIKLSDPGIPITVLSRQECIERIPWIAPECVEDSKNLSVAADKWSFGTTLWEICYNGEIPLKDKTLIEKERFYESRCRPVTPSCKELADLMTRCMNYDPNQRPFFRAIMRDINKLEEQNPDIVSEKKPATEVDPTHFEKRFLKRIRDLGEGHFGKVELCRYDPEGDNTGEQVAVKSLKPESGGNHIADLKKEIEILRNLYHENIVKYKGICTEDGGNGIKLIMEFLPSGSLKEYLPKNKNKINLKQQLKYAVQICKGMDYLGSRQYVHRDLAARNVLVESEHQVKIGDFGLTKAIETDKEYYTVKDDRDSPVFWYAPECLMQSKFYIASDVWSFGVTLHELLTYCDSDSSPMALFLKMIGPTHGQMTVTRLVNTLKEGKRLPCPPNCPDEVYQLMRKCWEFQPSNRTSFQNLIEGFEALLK
Sequence of Activin receptor type-1-like (Homo sapiens) (P37023 whole entry): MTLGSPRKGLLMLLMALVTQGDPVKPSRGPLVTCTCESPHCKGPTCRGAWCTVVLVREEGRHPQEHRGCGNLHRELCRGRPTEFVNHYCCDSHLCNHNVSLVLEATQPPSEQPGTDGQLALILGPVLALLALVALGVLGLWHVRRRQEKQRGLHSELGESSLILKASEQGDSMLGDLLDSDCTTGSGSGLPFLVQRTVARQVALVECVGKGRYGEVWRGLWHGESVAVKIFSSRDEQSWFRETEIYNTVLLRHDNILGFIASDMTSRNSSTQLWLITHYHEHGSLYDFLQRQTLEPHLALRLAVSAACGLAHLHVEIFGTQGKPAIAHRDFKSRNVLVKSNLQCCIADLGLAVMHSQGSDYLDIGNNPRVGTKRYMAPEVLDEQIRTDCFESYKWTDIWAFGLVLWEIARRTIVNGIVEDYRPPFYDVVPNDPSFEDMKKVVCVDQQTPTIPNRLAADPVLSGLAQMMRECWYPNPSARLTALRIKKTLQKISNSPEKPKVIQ
Sequence of Serine/threonine-protein kinase PAK 4 (Homo sapiens) (O96013 whole entry, looked up): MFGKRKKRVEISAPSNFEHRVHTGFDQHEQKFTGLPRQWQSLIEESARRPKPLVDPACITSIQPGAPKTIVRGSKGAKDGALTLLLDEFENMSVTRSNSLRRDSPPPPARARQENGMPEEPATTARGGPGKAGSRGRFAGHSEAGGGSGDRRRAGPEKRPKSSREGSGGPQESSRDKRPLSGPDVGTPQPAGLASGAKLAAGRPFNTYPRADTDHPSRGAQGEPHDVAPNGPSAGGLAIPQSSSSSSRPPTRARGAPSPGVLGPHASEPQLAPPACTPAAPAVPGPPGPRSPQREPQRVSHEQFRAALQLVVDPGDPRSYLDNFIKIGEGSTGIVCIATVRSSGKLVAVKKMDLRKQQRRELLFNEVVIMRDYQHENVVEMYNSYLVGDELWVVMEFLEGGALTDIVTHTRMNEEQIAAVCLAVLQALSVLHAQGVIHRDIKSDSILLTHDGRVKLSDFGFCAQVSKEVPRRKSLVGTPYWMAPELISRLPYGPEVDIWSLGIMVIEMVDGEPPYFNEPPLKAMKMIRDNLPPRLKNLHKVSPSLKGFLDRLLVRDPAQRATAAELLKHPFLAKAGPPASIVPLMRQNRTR
Sequence of Mitogen-activated protein kinase 7 (Homo sapiens) (Q13164 2-816 limits assumed): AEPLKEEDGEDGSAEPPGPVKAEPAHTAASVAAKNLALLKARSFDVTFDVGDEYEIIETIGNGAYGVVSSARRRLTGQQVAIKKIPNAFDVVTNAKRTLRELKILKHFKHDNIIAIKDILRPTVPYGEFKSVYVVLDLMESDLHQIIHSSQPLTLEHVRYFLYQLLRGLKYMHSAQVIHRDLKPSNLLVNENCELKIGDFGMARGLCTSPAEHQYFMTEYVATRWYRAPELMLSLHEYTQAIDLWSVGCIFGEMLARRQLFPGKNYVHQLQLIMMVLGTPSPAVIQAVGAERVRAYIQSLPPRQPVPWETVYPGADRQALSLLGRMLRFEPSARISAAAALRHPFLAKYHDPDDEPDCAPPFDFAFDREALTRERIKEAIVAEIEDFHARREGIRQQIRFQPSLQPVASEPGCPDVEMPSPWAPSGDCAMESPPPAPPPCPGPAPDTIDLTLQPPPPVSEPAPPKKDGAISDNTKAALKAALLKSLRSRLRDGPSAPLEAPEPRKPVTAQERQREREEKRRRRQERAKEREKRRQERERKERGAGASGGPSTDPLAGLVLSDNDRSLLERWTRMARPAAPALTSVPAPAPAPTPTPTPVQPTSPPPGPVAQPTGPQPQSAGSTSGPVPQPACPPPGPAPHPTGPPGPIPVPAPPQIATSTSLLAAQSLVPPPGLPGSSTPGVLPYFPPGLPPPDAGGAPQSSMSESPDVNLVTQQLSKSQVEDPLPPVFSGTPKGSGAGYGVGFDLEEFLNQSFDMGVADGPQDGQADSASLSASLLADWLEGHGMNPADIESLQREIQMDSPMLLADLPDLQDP
Sequence of Mitogen-activated protein kinase kinase kinase 21 (Homo sapiens) (Q5TCX8 whole entry): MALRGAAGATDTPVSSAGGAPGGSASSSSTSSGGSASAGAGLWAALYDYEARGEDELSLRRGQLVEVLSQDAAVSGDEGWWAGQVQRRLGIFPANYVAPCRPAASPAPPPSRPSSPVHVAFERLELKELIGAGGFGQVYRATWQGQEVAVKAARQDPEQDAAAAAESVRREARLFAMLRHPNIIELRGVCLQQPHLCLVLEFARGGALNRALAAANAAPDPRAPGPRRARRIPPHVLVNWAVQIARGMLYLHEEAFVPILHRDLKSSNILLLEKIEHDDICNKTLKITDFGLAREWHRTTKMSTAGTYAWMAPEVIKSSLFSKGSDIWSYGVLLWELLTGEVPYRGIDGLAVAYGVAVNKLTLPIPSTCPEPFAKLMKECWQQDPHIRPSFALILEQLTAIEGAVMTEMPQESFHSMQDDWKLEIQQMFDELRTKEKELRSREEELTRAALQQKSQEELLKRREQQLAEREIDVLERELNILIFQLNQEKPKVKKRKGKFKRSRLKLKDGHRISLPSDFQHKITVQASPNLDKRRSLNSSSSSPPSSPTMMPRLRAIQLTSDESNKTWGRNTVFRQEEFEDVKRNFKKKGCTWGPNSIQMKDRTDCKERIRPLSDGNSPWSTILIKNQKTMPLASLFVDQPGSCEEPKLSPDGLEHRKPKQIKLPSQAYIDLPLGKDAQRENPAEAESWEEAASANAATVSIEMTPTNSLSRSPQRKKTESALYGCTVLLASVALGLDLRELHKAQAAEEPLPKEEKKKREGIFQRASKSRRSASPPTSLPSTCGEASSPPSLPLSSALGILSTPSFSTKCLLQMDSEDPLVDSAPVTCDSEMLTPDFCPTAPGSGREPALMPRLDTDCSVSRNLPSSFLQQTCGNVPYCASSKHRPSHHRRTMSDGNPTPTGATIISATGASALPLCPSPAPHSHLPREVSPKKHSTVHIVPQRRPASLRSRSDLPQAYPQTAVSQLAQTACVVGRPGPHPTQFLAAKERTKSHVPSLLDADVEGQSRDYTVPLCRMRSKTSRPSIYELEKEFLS

As for `C[C@H](Nc1ncnc2nc[nH]c12)c1cc2cccc(Cl)c2c(=O)n1-c1ccccc1`, the Activity stood at 96.4% in assay [1]; 85.3% in assay [2]; 92.9% in [3]; 84.6% in [4]; 93.5% in assay [5]; 92.8% in [6]. In addition, the Activity turned out to be 95% in assay [7], 107% in [8] and 97.3% in assay [9].

With `CC[C@H](Nc1ncnc2[nH]cnc12)c1nc2cccc(F)c2c(=O)n1-c1ccccc1`, the Activity in assay [1] is 96.6%; in assay [2], 77.4%; in assay [3], 90.6%; in assay [4], 85.6%; in [5], 95.7%; in assay [6], 111%. Moreover, the values for the Activity in assay [7], in assay [8] and in assay [9] were 94.3%, 95.9% and 97.2%, respectively.

In the case of `CC(C)Oc1ccc(-c2nn([C@@H](C)c3oc4ccc(F)cc4c(=O)c3-c3cccc(F)c3)c3ncnc(N)c23)cc1F` [UMBRALISIB], the Activity in assay [1] worked out at 104%; in assay [2], 79.3%; in [3], 103%; in [4], 83.4%; in [5], 94.7%; in [6], 110%. Further, the results for the Activity in assay [7], in assay [8] and in [9] were 91%, 99.1% and 98.7%, respectively.
